Experimental data published in patent publication US8303999B2, “Natural extract containing xanthohumol, method for the production thereof and products produced therefrom” (Ta-Xan AG, priority 2004, dated 2012).
Converted amounts (≈) assume the structure as drawn. Like-named read-outs stand apart in the source and are kept apart here.

Assay: solubility limit of XN in aqueous solution (water)
Assay type: physicochemical
Details: read-out: solubility limit of XN in typical aqueous solutions
Protocol: For producing roasted extract comprising XN a hot aqueous extract of the ground roasted products e.g. of barley, wheat, rye as well as the corresponding malts, coffee beans or cacao beans is prepared. A hop extract comprising XN is added thereto at the beginning of the heating period. The extraction of xanthohumol in the extractions of the roasted products leads to a XN content which is by far higher than the solubility limit of XN in typical aqueous solutions. This amounts to 1.3 mg/l of XN at a water temperature of 23° C. and to 1.1 mg/l of XN at a water temperature of 8° C.

solubility (water temperature of 8° C.): 1.1 µg/mL (≈ 3.1 µM)
solubility (water temperature of 23° C.): 1.3 µg/mL (≈ 3.67 µM)
SMILES: COc1cc(O)c(CC=C(C)C)c(O)c1C(=O)/C=C/c1ccc(O)cc1 [XN, xanthohumol]
